In patent US20160122387A1, “Angiotensin Peptide and Pharmaceutical Compositions for Disease Treatment” (UNIVERSIDADE FEDERAL DE MINAS GERAIS - UFMG, priority 2012, published 2016):

Legend:
protein kinase B (AKT) = assay: Activation (Ser473 phosphorylation) of AKT in neonatal rat cardiomyocytes, Western blot; assay type: cell-based; details: cardiomyocyte cells, 10^−9 mol/L, five minutes
Method: Wistar neonatal rat cardiomyocytes were cultured in regular growth medium consisting of DEMEM medium supplemented with 10% horse serum, 5% fetal bovine serum, 1% penicillin/streptomycin and 0.1% fibroblast inhibitor. The cells were maintained in serum free medium for three hours before the start of treatment. The study was carried out acutely, for five minutes using a concentration of 10^−9 mol/L of the following drugs diluted in culture medium: Ang-(1-7), arg0-Ang-(1-7) and insulin. Cells incubated with culture medium only were used as control group.
Total protein was isolated from cardiomyocytes cells with lysis buffer containing protease inhibitors cocktail (Days-Peixoto et al., Hypertension 52: 542-548, 2008). Sixty micrograms of total protein was separated by electrophoresis, transferred to a nitrocellulose membrane, blocked with 5% skimmed milk powder diluted in Tris-saline containing 0.1% Tween, and finally incubated overnight with anti-AKT polyclonal antibody (1:1000), anti-Ser473 phospho-Akt (1:600), anti-glyceraldehyde-3-phosphate dehydrogenase (GAPDH—1:1000). Subsequently, the membranes were incubated with fluorescently labeled secondary antibody (1:10000), followed by identification and quantitation by the Odyssey program (LI-COR).
The results are presented as mean+E.PM. […]

[1] = tested on: thoracic aortic rings of normotensive Wistar rats; assay: Vasorelaxation in thoracic aortic rings of normotensive Wistar rats pre-contracted with phenylephrine; parameters: species or system rat; details: aortic rings of Wistar and SHR rats (FIGS. 2A and 2B)
Method: Three- to four-mm rings of the descending thoracic aorta, free from adipose and connective tissue, were maintained in a gasified solution (95% 02 and 5% CO2) of Krebs-Henseleit, at 37° C. under 1.0 g tension, 1 hour for stabilization. The presence of functional endothelium was assessed by the ability of acetylcholine [ACh] (10 μmol/L) to induce more than 70% relaxation of vessels pre-contracted with phenylephrine (Phe) ([…]). The mechanical activity, recorded isometrically by a force transducer, was fed into a recorder-amplifier and a computer equipped with an analog-digital converter board, using CVMS data acquisition/recording software.
The vessels from normotensive Wistar rats and spontaneously hypertensive rats (SHR) were pre-contracted in the same voltage level (approximately 1.0 g tension) at the submaximal concentration of phenylephrine ([…]). Arg0-Ang-(1-7) and Ang-(1-7) were added in increasing cumulative concentrations as the response to phenylephrine was stabilized. Results are presented as mean±SEM. One-way analysis of variance (ANOVA) with Newman-Keuls post test of multiple comparisons was used to compare the concentration response curves obtained in the aortic rings. The vasodilatation effect of arg0-Ang-(1-7) and Ang-(1-7) was expressed as the percentage of decrease in peak concentration induced by phenylephrine. […]

rat receptor Mas = biological target: T1, rat receptor Mas (Rattus norvegicus, UniProt P12526); assay: Nitric oxide production in CHO cells transfected with the Mas receptor (DAF-FM fluorescence); assay type: cell-based; details: 10^−7 mol/L, 60 minutes
T1 construct: expressed in transfected cells
T1 sequence (P12526 1-324): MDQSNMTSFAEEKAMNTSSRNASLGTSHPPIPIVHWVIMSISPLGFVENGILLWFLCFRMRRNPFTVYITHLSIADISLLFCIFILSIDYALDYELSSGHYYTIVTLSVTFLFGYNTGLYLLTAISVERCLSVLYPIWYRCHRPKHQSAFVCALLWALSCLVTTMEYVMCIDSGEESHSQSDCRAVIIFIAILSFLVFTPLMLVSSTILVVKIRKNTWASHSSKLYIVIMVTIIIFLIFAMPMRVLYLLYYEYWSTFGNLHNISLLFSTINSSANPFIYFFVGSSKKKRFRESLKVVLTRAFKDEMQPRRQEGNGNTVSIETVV
Method: Chinese hamster ovary cells (CHO) were stably transfected with the cDNA of the rat receptor Mas driven by a cytomegalovirus promoter and selected using neomycin. Nitric oxide production was monitored using the indicator NO 4-amino-5-methylamino-2′,7′-difluorofluorescent diacetate.
Confluent CHO cells transfected with the Mas receptor and cultured in 6-well plates were preincubated in 1.5 ml of serum free medium (DMEM) containing DAF-FM (least 5 uM) and supplemented with 0.2% BSA, 0.005% bacitracin, […] phenylmethylsulfonyl fluoride and […] 1, 10-phenanthroline at 37° C. in a humidified incubator in an atmosphere with 5% CO2. After 30 minutes, cells were washed and incubated with arg0-Ang-(1-7) and Ang-(1-7) at 10^−7 mol/L for 60 minutes. Subsequently, the cells were washed twice and the slides were mounted for confocal microscopy for evaluation.
Relative fluorescence measurements were made using a Zeiss LSM 510 laser scanning META confocal microscope excited at 488 nm with an argon-ion laser (objective lens immersion oil, 63×).
Results are presented as mean±SEM. One-way analysis of variance with Bonferroni post-test for multiple comparisons was used to compare the concentration-response curve in CHO cells transfected with the receptor Mas. All statistical analyses were considered significant when p<0.05.

[2] = tested on: Human alveolar adenocarcinoma cells (A549); assay: Anti-proliferative effect in A549 cells (AlamarBlue cell viability); assay type: cell-based; details: 1×10^−4 to 2×10^−7M, 48 hours
Method: Human alveolar adenocarcinoma cells (A549), cultured in DEMEM supplemented with 10% fetal bovine serum and 1% penicillin/streptomycin, were distributed into 96 wells plate at the density of 2×10^4 cells/well. After 48 hours of incubation in an incubator at 37° C., the arg0-angiotensin-(1-7) and angiotensin (1-7) peptides were added to the wells and serially diluted (1×10^−4 to 2×10^−7M) in culture medium free of fetal bovine serum. Wells not plated with cells and wells with cells but stimulated only with culture medium were used as controls. The stimulus, which lasted 48 hours, was followed by the addition of AlamarBlue reagent (Invitrogen), used to detect cell viability.

Asp-Arg-Val-Tyr-Ile-His-Pro [Ang-(1-7)]
activation of protein kinase B (AKT) (protein kinase B (AKT)): triggered the activation of protein kinase B (AKT)
endothelium dependence of the vasorelaxant effect [1]: endothelium-dependent
nitric oxide production (rat receptor Mas): stimulated nitric oxide production
anti-proliferative effect [2]: anti-proliferative effect
